Patent US9120820B2, “Fluorescent molecular probes for use in assays that measure test compound competitive binding with SAM-utilizing proteins” (CAYMAN CHEMICAL COMPANY, INCORPORATED, priority 2011, dated 2015)
Where two headings read alike, the source gives them in different places.

Molecular target: T1, G9a (Homo sapiens, UniProt Q96KQ7)
T1 construct: purchased Cayman 49010353
T1 sequence (Q96KQ7 1-1210): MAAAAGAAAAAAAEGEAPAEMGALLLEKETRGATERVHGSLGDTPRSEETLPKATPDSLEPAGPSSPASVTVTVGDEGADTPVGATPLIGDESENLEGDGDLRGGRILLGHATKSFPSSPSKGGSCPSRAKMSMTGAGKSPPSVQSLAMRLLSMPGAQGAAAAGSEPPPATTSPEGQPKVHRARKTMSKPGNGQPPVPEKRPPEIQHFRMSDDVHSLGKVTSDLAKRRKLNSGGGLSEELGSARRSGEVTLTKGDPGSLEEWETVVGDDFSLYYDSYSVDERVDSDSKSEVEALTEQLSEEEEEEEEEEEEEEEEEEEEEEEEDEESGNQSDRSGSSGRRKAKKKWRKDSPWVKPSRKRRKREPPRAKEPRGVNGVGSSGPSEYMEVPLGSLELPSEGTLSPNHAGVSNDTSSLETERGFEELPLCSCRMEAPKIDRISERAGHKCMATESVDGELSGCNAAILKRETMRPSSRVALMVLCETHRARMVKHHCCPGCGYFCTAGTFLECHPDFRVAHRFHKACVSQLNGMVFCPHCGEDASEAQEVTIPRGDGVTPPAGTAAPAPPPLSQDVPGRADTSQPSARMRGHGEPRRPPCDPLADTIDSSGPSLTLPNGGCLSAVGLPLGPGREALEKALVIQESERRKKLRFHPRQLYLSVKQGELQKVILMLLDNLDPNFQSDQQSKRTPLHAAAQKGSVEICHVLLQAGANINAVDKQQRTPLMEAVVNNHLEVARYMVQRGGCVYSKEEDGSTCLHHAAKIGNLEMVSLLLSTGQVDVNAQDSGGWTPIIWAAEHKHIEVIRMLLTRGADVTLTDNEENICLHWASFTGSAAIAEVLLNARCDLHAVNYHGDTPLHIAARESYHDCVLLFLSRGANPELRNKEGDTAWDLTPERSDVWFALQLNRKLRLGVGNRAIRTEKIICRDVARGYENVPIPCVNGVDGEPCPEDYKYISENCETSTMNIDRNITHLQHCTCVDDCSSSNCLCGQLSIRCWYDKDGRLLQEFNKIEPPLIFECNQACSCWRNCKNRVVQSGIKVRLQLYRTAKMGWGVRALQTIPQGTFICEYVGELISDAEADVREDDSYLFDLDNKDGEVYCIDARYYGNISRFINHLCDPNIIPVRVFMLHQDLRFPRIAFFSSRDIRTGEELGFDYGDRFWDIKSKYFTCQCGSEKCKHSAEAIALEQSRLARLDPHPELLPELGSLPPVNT
Assay: Fluorescence polarization saturation binding of fluorescent probe to G9a
Procedure: Methods: The experiment was performed once, with two replicate wells for all methyltransferases per condition. The sole exception to this is NSD2 (see details below). The assay was performed in a ½ area, black, 96-well plate (Corning #3686) in a final volume of 30 μL. Methyltransferases (Table 1) were serially diluted two-fold in FP buffer (Cayman Catalog #600028) and 15 μL of a given dilution were added per well to the assay plate. Fifteen microliters of sinefungin probe 1A (10 nM) were added to each well, giving a final sinefungin probe 1A concentration of 5 nM. This concentration of sinefungin probe 1A was chosen because it had at least a 10-fold increase in fluorescence (excitation max 575 nm/emission max 615 nm) over background (buffer). The mixture was incubated in the dark at room temperature for 30 minutes and its fluorescence polarization was read using a BioTek Synergy 4.

Kd (Example 8, G9a, 5 nM probe, experiment performed once, FIG. 2, read-out: Kd): ~700 nM
Kd (G9a, saturation-binding format, mean ± SEM, read-out: Sinefungin Probe 1A Affinity): 1800 ± 1000 nM
SMILES: Nc1ncnc2c1ncn2[C@@H]1O[C@H](C[C@@H](N)CC[C@H](N)C(=O)O)[C@@H](OCc2cnnn2CCCCCCNC(=O)OC2CCN(C(=O)c3ccccc3C3=c4cc5c6c(c4Oc4c3cc3c7c4CCCN7CCC3)CCC[N+]=6CCC5)CC2)[C@H]1O [Sinefungin Probe 1A]
